Measurements published in US10716814B2, “Mesenchymal stem cells and uses therefor” (Mesoblast International Sárl, priority 2004, dated 2020).

Columns and labels:
DC1 cells = assay: MSC co-culture with LPS-activated DC1 cells, TNF-α secretion; assay type: cell-based, human; details: MSCs cultured with activated DC1 in presence of PGE2 inhibitor
Excerpt: Peripheral blood mononuclear cells (PBMCs) were obtained from Poietics Technologies, Div of Cambrex Biosciences (Walkersville, Md.). Precursors of dendritic cells (DCs) of monocytic lineage (CD1c^+) were positively selected from PBMCs using a 2-step magnetic separation method according to Dzionek, et al., J. Immunol., Vol. 165, pg. 6037 (2000). Briefly, CD1c expressing B cells were magnetically depleted of CD19^+ cells using magnetic beads, followed by labeling the B-cell depleted fraction with biotin-labeled CD1c (BDCA1^+) and anti-biotin antibodies and separating them from the unlabeled cell fraction utilizing magnetic columns according to the manufacturer's instructions (Miltenyi Biotech, Auburn, Calif.). Precursors of DCs of plasmacytoid lineage were isolated from PBMCs by immuno-magnetic sorting of positively labeled antibody coated cells (BDCA2^+) (Miltenyi Biotech, Auburn, Calif.).
In most experiments, human MSCs and DCs were cultured in equal numbers for various time periods and cell culture supernatant collected and stored at −80° C. until further evaluation. […] The non-adherent cell fraction (purified T cells) was then collected from the cultures, washed twice and re-stimulated with PHA for another 24 hours, following which cell culture supernatants were harvested and analyzed for secreted IFN-γ and IL-4 by ELISA. […]

MSCs = assay: Secreted factors (PGE2, IL-6, VEGF, pro-MMP-1) in culture supernatant of MSCs; assay type: cell-based; details: Homo sapiens, 24 hour culture, read-out: inhibition of PGE2 secretion by hMSCs
Description: Using previously characterized human MSCs, the levels of Interleukin-6 (IL-6), VEGF, lipid mediator prostaglandin E2 (PGE2), and matrix metalloproteinase 1 (pro-MMP-1) were analyzed in culture supernatant of MSCs cultured for 24 hours in the presence or absence of PBMCs (MSC to PBMC ratio 1:10).

CD4+ Th cells = assay: Generation of TH1/TH2 cells in presence or absence of MSCs, IFN-γ and IL-4 by ELISA; assay type: cell-based, human; details: MSCs cultured with TH1 cells in presence of PGE2 inhibitor
Description: Peripheral blood mononuclear cells (PBMCs) were plated at 2×10^6 cells/ml for 45 min. at 37°C. in order to remove monocytes. Non-adherent fraction was incubated in the presence of plate-bound anti-CD3 ([…]) and anti-CD28 (1 μg/ml) antibodies under TH1 (IL-2 (4 ng/ml)+IL-12 (5 ng/ml)+anti-IL-4 (1 μg/ml)) or TH2 (IL-2 (4 ng/ml)+Il-4 (4 ng/ml)+anti-IFN-γ (1 μg/ml)) conditions for 3 days in the presence or absence of MSCs. The cells were washed and then re-stimulated with PHA (2.5 μg/ml) for another 24 or 48 hours, following which levels of IFN-γ and IL-4 were measured in culture supernatants by ELISA (R&D Systems, Minneapolis, Minn.).

Compound	TNF-α secretion by DC1s (DC1 cells)	inhibition at 5 µM (MSCs; NS-398 5 μM) [%]	IFN-γ secretion from TH1 cells (CD4+ Th cells)	inhibition at 4 µM (MSCs; indomethacin 4 μM) [%]
CS(=O)(=O)Nc1ccc([N+](=O)[O-])cc1OC1CCCCC1 [NS-398]	increased TNF-α secretion	60 to 90	increased	–
COc1ccc2c(c1)c(CC(=O)O)c(C)n2C(=O)c1ccc(Cl)cc1 [indomethacin]	increased TNF-α secretion	–	increased	60 to 90
